Test results published in patent publication US20150225794A1, “METHOD OF PREDICTING A PREDISPOSITION TO QT PROLONGATION” (Vanda Pharmaceuticals, Inc., priority 2009, published 2015).

Columns and labels:
[1] = tested on: QT interval; assay: QT prolongation and rs7067971 genotype in individuals given oral iloperidone for two weeks; assay type: in vivo, human; conditions: for High QT, + test (number of individuals) / Low QT, + test (number of individuals): rs7067971 GG; for High QT, + test (number of individuals) / Low QT, + test (number of individuals) / High QT, − test (number of individuals) / Low QT, − test (number of individuals): 24 mg/day B.I.D. oral, two weeks; for High QT, − test (number of individuals) / Low QT, − test (number of individuals): rs7067971 non-GG; for Odds Ratio: rs7067971 GG test
Experimental: (§1) Since the QT interval changes with changes in heart rate, the QT interval is often measured as a corrected QT (QTc) interval. Any number of formulas may be employed to calculate the QTc, including, for example, the Fridericia formula (QTcF), the Bazett formula (QTcB), and the Rautaharju formula (QTp), among others. In the studies described herein, QT was calculated using the Fridericia formula. However, the present invention includes the use of any such formula or method for calculating a QTc or an uncorrected QT. Using the genotypes at the SNP loci above, it is possible, with a high degree of certainty, to predict an individual's predisposition to QT prolongation.

[2] = tested on: QT interval; assay: ABCC2 SNP genotypes and QT prolongation following administration of iloperidone; assay type: in vivo, human; conditions: QTcF
Experimental: as §1, with “QT.” for “QT. Using the genotypes at the SNP loci above, it is possible, with a high degree of certainty, to predict an individual's predisposition to QT prolongation.”

Structure (SMILES): COc1cc(C(C)=O)ccc1OCCCN1CCC(c2noc3cc(F)ccc23)CC1 [iloperidone]
- High QT, + test (number of individuals) ([1]; change threshold QT > 5 msec): 13
- Low QT, + test (number of individuals) ([1]; change threshold QT > 5 msec): 0
- High QT, − test (number of individuals) ([1]; change threshold QT > 5 msec): 101
- Low QT, − test (number of individuals) ([1]; change threshold QT > 5 msec): 64
- Odds Ratio ([1]; change threshold QT > 15 msec): 9.38
- High QT, + test (number of individuals) ([1]; change threshold QT > 15 msec): 11
- Low QT, + test (number of individuals) ([1]; change threshold QT > 15 msec): 2
- High QT, − test (number of individuals) ([1]; change threshold QT > 15 msec): 61
- Low QT, − test (number of individuals) ([1]; change threshold QT > 15 msec): 104
- Odds Ratio ([1]; change threshold QT > 30 msec): 5.88
- High QT, + test (number of individuals) ([1]; change threshold QT > 30 msec): 6
- Low QT, + test (number of individuals) ([1]; change threshold QT > 30 msec): 7
- High QT, − test (number of individuals) ([1]; change threshold QT > 30 msec): 21
- Low QT, − test (number of individuals) ([1]; change threshold QT > 30 msec): 144
- Lowest QTc change (genotype) ([2]; SNP_A-2004488, rs2256678, allele A C, allele B T): non-BB
- Lowest QTc change (genotype) ([2]; SNP_A-2068049, rs7067971, allele A A, allele B G): non-BB
- Lowest QTc change (genotype) ([2]; SNP_A-2253129, rs4919395, allele A C, allele B T): non-BB
- Lowest QTc change (genotype) ([2]; SNP_A-2262953, rs2804398, allele A A, allele B T): non-BB
- Lowest QTc change (genotype) ([2]; SNP_A-4268713, rs2256700, allele A A, allele B G): non-BB
